Test results published in patent US20260217687A1 (NeoPhore Limited, priority 2023, published 2026).

target: T1, recombinant N-terminal MLH1 (residues 15-340) (Homo sapiens, UniProt P40692); assay: Fluorescence Polarisation Assay for MLH1; assay type: binding; settings: 100 nM N-terminal MLH1, 5 nM probe compound
T1 construct: recombinant N-terminal MLH1 (residues 15-340)
T1 sequence (P40692 15-340): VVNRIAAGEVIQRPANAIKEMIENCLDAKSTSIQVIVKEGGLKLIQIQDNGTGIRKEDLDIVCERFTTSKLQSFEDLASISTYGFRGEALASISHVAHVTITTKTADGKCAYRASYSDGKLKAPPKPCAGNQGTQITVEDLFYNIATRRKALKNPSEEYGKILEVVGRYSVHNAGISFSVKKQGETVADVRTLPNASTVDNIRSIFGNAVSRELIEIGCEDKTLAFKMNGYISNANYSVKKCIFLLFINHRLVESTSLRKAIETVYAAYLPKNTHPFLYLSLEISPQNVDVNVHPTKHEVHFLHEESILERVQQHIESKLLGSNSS
Summary of the method: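 Fluorescence polarisation displacement: 100 nM MLH1 (15-340) preincubated 30 min at room temperature with compound, then 5 nM rhodamine-labelled probe added and read immediately. Buffer 25 mM HEPES pH 7.5, 250 mM NaCl, 10 mM MgCl2, 0.01% Triton X-100, 5 mM DTT; normalised to no-inhibitor and no-enzyme controls.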

Compound | IC50
COc1ccc2c(c1N[C@H]1CCOC1)CN(C(=O)c1c(O)cc(C(F)F)cc1OCc1ccccc1)CC2 [Example 4.23, (S)-(2-(Benzyloxy)-4-(difluoromethyl)-6-hydroxyphenyl)(7-methoxy-8-((tetrahydrofuran-3-yl)amino)-3,4-dihydroisoquinolin-2(1H)-yl)methanone] | 1 to 10 µM
N#Cc1cc(O)c(C(=O)N2Cc3cnc(N4CCOCC4)cc3C2)c(OCc2ccccc2)c1 [Example 27.8, 3-(Benzyloxy)-5-hydroxy-4-(6-morpholino-2,3-dihydro-1H-pyrrolo[3,4-c]pyridine-2-carbonyl)benzonitrile] | 1 to 10 µM
CN1CC(Nc2cccc3c2CN(C(=O)c2c(O)cc(C(F)F)cc2OCc2ccccc2)C3)C1 [Example 4.33] | 0.1 to 1 µM
CN1CC(Nc2cccc3c2CN(C(=O)c2c(O)cc(Cl)cc2OCc2ccccc2)C3)C1 [Example 10.20, (2-(Benzyloxy)-4-chloro-6-hydroxyphenyl)(4-((1-methylazetidin-3-yl)amino)isoindolin-2-yl)methanone] | 0.1 to 1 µM
CN1CC[C@H](Oc2ccc3c(c2)CN(C(=O)c2c(O)cc(C(F)F)cc2OCc2ccccc2)CC3)C1 [Example 4.68, (S)-(2-(Benzyloxy)-4-(difluoromethyl)-6-hydroxyphenyl)(7-((1-methylpyrrolidin-3-yl)oxy)-3,4-dihydroisoquinolin-2(1H)-yl)methanone] | 0.1 to 1 µM
O=C1OCCC1Nc1cccc2c1CN(C(=O)c1c(O)cc(C(F)F)cc1OCc1ccccc1)CC2 (stereo not shown) [Example 4.17, 3-((2-(2-(Benzyloxy)-4-(difluoromethyl)-6-hydroxybenzoyl)-1,2,3,4-tetrahydroisoquinolin-8-yl)amino) dihydrofuran-2(3H)-one] | 0.1 to 1 µM
O=C(c1c(O)cc(C(F)F)cc1OCc1ccccc1)N1Cc2cccc(N[C@@H]3CCOC3)c2C1 [Example 3, (R)-(2-(Benzyloxy)-4-(difluoromethyl)-6-hydroxyphenyl)(4-((tetrahydrofuran-3-yl)amino)isoindolin-2-yl)methanone] | 0.1 to 1 µM
CN1CCN(Cc2ccc3c(c2)CN(C(=O)c2c(O)cc(C(F)F)cc2OCc2ccccc2)CC3)CC1 [Example 4.46, (2-(Benzyloxy)-4-(difluoromethyl)-6-hydroxyphenyl)(7-((4-methylpiperazin-1-yl)methyl)-3,4-dihydroisoquinolin-2(1H)-yl)methanone] | 0.1 to 1 µM
CN1CC(Oc2ccc3c(c2)CN(C(=O)c2c(O)cc(C#N)cc2OCc2ccccc2)C3)C1 [Example 10.32, 3-(Benzyloxy)-5-hydroxy-4-(5-((1-methylazetidin-3-yl)oxy)isoindoline-2-carbonyl)benzonitrile] | 0.1 to 1 µM
CN1CC[C@@H](Nc2cccc3c2CN(C(=O)c2c(O)cc(C(F)F)cc2OCc2ccccc2)C3)C1=O [Example 4.14, (R)-3-((2-(2-(Benzyloxy)-4-(difluoromethyl)-6-hydroxybenzoyl)isoindolin-4-yl)amino)-1-methylpyrrolidin-2-one] | 0.1 to 1 µM
O=C(c1c(O)cc(C(F)F)cc1OCc1ccccc1)N1Cc2ccc(OCCN3CCOCC3)cc2C1 [Example 4.70, (2-(Benzyloxy)-4-(difluoromethyl)-6-hydroxyphenyl) (5-(2-morpholinoethoxy)isoindolin-2-yl) methanone] | 0.1 to 1 µM
CN(C)CCOc1ccc2c(c1)CN(C(=O)c1c(O)cc(C(F)F)cc1OCc1ccccc1)C2 [Example 4.31, (2-(Benzyloxy)-4-(difluoromethyl)-6-hydroxyphenyl)(5-(2-(dimethylamino)ethoxy)isoindolin-2-yl)methanone] | 0.1 to 1 µM
O=C(c1c(O)cc(C(F)F)cc1OCc1ccccc1)N1CCc2cc(Cn3ccnc3)cc(N[C@H]3CCOC3)c2C1 [Example 4.22, (S)-(6-((1H-Imidazol-1-yl)methyl)-8-((tetrahydrofuran-3-yl)amino)-3,4-dihydroisoquinolin-2(1H)-yl)(2-(benzyloxy)-4-(difluoromethyl)-6-hydroxyphenyl)methanone] | < 0.1 µM
CN1CCC(Oc2cc3c(c(N[C@H]4CCOC4)c2)CN(C(=O)c2c(O)cc(C(F)F)cc2OCc2ccccc2)C3)CC1 [Example 4.62, (S)-(2-(Benzyloxy)-4-(difluoromethyl)-6-hydroxyphenyl)(6-((1-methylpiperidin-4-yl)oxy)-4-((tetrahydrofuran-3-yl)amino)isoindolin-2-yl)methanone] | < 0.1 µM
O=C(c1c(O)cc(C(F)F)cc1OCc1ccccc1)N1CCc2cc(NC3CCOC3)ccc21 (single isomer, unassigned) [Example 27.5a, (S)-(2-(Benzyloxy)-4-(difluoromethyl)-6-hydroxyphenyl)(5-((tetrahydrofuran-3-yl)amino)indolin-1-yl)methanone or (R)-(2-(Benzyloxy)-4-(difluoromethyl)-6-hydroxyphenyl)(5-((tetrahydrofuran-3-yl)amino)indolin-1-yl)methanone] | 0.1 to 1 µM
CN1CC[C@H](Oc2ccc3c(c2)CCN(C(=O)c2c(O)cc(C(F)F)cc2OCc2ccccc2)C3)C1 [Example 4.64, (S)-(2-(Benzyloxy)-4-(difluoromethyl)-6-hydroxyphenyl)(6-((1-methylpyrrolidin-3-yl)oxy)-3,4-dihydroisoquinolin-2(1H)yl)methanone] | 0.1 to 1 µM
CN(C)CCOc1cc2c(c(N[C@@H]3CCOC3)c1)CN(C(=O)c1c(O)cc(Cl)cc1OCc1ccccc1)C2 [Example 9, (R)-(2-(Benzyloxy)-4-chloro-6-hydroxyphenyl)(6-(2-(dimethylamino)ethoxy)-4-((tetrahydrofuran-3-yl)amino)isoindolin-2-yl)methanone] | 0.1 to 1 µM
COc1ccc2c(c1)CCN(C(=O)c1c(O)cc(C(F)F)cc1OCc1ccccc1)C2 [Example 4.39, (2-(Benzyloxy)-4-(difluoromethyl)-6-hydroxyphenyl)(6-methoxy-3,4-dihydroisoquinolin-2(1H)-yl)methanone] | 1 to 10 µM
O=C(c1c(O)cc(C(F)F)cc1OCc1ccccn1)N1Cc2cccc(NC3COC3)c2C1 [Example 4.5, (4-(Difluoro methyl)-2-hydroxy-6-(pyridin-2-ylmethoxy)phenyl) (4-(oxetan-3-ylamino)isoindolin-2-yl) methanone] | 0.1 to 1 µM
O=C(c1c(O)cc(C(F)F)cc1OCc1ccccc1)N1Cc2ccc(OC3CCOCC3)cc2C1 [Example 4.78, (2-(Benzyloxy)-4-(difluoromethyl)-6-hydroxyphenyl) (5-((tetrahydro-2H-pyran-4-yl)oxy)isoindolin-2-yl)methanone] | 0.1 to 1 µM
CN1C[C@H](Nc2cccc3c2CN(C(=O)c2c(O)cc(C#N)cc2OCc2ccccc2)C3)CC1=O (single isomer, unassigned) [Example 10.7, (R)-3-(Benzyloxy)-5-hydroxy-4-(4-((1-methyl-5-oxopyrrolidin-3-yl)amino)isoindoline-2-carbonyl)benzonitrile or (S)-3-(benzyloxy)-5-hydroxy-4-(4-((1-methyl-5-oxopyrrolidin-3-yl)amino)isoindoline-2-carbonyl)benzonitrile] | 0.1 to 1 µM
CN(C)CCOc1cc2c(c(N[C@H]3CCOC3)c1)CN(C(=O)c1c(O)cc(C#N)cc1OCc1ccccc1)C2 [Example 19, (S)-3-(Benzyloxy)-4-(6-(2-(dimethylamino)ethoxy)-4-((tetrahydrofuran-3-yl)amino)isoindoline-2-carbonyl)-5-hydroxybenzonitrile] | 0.1 to 1 µM
